IC50 data for 1 molecule are collected here from PMC5615432, “HM71224, a selective Bruton’s tyrosine kinase inhibitor, attenuates the development of murine lupus” (Arthritis Research & Therapy, 2017).

pIC50: −log10 of the molar value.

The target in the assay is Bruton's tyrosine kinase (BTK) (Homo sapiens, UniProt Q06187). Kind of assay: immunoblot of BTK Y223 autophosphorylation in anti-IgM-stimulated Ramos cells. The format is cell-based. In general terms: In western blotting, separated proteins are transferred to a membrane and probed.

The pIC50 is −log10 of the IC50, conventionally taken in molar units.

Chain of Bruton's tyrosine kinase (BTK) (Q06187 2-659): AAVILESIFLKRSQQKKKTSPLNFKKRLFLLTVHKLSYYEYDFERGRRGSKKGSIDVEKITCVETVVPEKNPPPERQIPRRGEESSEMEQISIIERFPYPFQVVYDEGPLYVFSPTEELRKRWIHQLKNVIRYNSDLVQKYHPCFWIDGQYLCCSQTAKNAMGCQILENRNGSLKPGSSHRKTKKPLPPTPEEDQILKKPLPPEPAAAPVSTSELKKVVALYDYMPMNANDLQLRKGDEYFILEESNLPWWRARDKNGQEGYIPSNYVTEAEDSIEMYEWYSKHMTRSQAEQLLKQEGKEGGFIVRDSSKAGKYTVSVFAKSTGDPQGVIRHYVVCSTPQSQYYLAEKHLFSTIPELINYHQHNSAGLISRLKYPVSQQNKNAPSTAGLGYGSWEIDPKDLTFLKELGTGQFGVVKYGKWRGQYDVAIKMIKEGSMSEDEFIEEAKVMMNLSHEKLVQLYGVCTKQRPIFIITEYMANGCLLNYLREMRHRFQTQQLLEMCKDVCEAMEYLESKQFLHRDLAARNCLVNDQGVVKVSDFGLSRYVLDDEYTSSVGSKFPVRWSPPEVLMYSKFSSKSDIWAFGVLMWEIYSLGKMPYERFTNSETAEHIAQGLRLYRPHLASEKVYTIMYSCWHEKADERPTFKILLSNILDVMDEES

Take `C=CC(=O)Nc1cccc(Oc2nc(Nc3ccc(N4CCN(C)CC4)cc3)nc3ccoc23)c1` [HM71224]: the negative-log IC50 (pIC50) is > 8.00.
